Read-outs that look alike come from different tables or passages of the source.
Key:
[1] = target: MDM2–p53 (Homo sapiens, UniProt Q00987); experiment: MDM2–p53 ELISA protein–protein binding assay
[2] = target: T1, MDMX–p53 (Homo sapiens, UniProt O15151); experiment: MDMX–p53 ELISA binding assay
T1 construct: host or cells: in vitro coupled T7 transcription and rabbit reticulocyte lysate translation
T1 sequence (O15151 1-490): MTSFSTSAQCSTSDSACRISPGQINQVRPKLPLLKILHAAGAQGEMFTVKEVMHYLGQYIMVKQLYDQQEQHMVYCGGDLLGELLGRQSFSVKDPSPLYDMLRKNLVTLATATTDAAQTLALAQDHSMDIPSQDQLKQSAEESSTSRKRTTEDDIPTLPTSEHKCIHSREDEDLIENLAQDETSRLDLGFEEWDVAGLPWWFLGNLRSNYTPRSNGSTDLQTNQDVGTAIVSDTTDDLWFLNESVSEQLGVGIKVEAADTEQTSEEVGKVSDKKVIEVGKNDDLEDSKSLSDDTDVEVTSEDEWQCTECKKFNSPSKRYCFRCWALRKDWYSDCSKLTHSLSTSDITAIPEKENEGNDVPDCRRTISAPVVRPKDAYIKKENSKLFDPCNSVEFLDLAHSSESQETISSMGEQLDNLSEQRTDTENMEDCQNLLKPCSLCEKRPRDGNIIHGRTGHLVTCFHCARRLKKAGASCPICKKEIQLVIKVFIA

[3] = Table 3, n = 3 (b n = 5), read-out: MDM2 IC50
[4] = Table 3, n = 3 (c n = 1), read-out: MDMX IC50

MDM2–p53, sequence (Q00987 whole entry): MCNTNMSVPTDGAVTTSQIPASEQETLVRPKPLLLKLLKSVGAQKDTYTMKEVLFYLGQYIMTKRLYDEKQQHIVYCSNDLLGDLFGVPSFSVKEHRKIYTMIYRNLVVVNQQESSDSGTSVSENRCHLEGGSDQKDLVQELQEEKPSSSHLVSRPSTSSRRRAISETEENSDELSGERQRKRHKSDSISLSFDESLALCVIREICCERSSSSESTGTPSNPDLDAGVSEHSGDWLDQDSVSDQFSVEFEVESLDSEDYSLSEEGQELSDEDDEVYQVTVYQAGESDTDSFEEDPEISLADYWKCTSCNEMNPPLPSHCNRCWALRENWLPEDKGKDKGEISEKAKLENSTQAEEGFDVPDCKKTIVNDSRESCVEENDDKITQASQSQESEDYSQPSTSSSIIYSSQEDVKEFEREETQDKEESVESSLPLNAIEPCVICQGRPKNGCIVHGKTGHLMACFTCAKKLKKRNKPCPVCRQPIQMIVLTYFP

Structure (SMILES): O=C1NC(=S)N(c2cccc(Cl)c2)C(=O)/C1=C/c1cc(-c2ccccc2)n(-c2ccc(Cl)cc2)c1-c1ccccc1 [Compound 4e]
- IC50 ([1]; read-out: MDM2 IC50): 163 ± 17 nM

Structure (SMILES): Cc1ccc(N2C(=O)/C(=C\c3cc(-c4ccccc4)n(-c4ccc(Cl)cc4)c3-c3ccccc3)C(=O)N(c3ccccc3)C2=S)cc1C [Compound 4f]
- IC50 ([1]; read-out: MDM2-p53 IC50): 260 ± 40 nM
- IC50 ([1]; read-out: MDM2 IC50): 256 ± 39 nM

Structure (SMILES): CN1C(=O)C(=Cc2cc(-c3ccccc3)n(-c3ccc(Cl)cc3)c2-c2ccccc2)C(=O)N(C)C1=S [Compound 4g]
- MDM2-p53 IC50 [1]: Insol.
- MDM2 IC50 [1]: Insol.

Structure (SMILES): Cc1cc(C=C2C(=O)N(c3ccccc3)C(=S)N(c3ccccc3)C2=O)c(C)n1-c1ccc(Br)cc1 [Compound 4h]
- IC50 ([1]; read-out: MDM2 IC50): 199 ± 16 nM

Structure (SMILES): Cc1ccc(-n2c(C)cc(C=C3C(=O)NC(=S)NC3=O)c2C)cc1 [Compound 4j]
- IC50 ([1]; read-out: MDM2 IC50): 4700 ± 200 nM

Structure (SMILES): CCOC(=O)c1ccc(-n2c(-c3ccccc3)cc(C=C3C(=O)NC(=S)NC3=O)c2-c2ccccc2)cc1 [Compound 4k]
- IC50 ([1]; read-out: MDM2 IC50): 700 ± 20 nM

Structure (SMILES): O=C1NC(=O)C(=Cc2cc(-c3ccccc3)n(-c3ccc(Cl)cc3)c2-c2ccccc2)C(=O)N1 [Compound 4m]
- IC50 ([1]; read-out: MDM2 IC50): 300 ± 30 nM

Structure (SMILES): O=C1NC(=O)C(=Cc2cc(-c3ccccc3)n(-c3ccc(Br)cc3)c2-c2ccccc2)C(=O)N1 [Compound 4n]
- IC50 ([1]; read-out: MDM2 IC50): 180 ± 70 nM

Structure (SMILES): COc1ccc(-n2c(-c3ccccc3)cc(C=C3C(=O)NC(=O)NC3=O)c2-c2ccccc2)cc1 [Compound 4o]
- IC50 ([1]; read-out: MDM2 IC50): 1900 ± 300 nM
- IC50 ([2]; read-out: MDMX IC50): 13000 ± 7000 nM

Structure (SMILES): CC(C)(C)c1ccc(-n2c(-c3ccccc3)cc(C=C3C(=O)NC(=O)NC3=O)c2-c2ccccc2)cc1 [Compound 4p]
- IC50 ([1]; read-out: MDM2 IC50): 1900 ± 300 nM

Structure (SMILES): N#Cc1ccc(-n2c(-c3ccccc3)cc(C=C3C(=O)NC(=O)NC3=O)c2-c2ccccc2)cc1 [Compound 4q]
- IC50 ([1]; read-out: MDM2 IC50): 4700 ± 1900 nM
- IC50 ([2]; read-out: MDMX IC50): 7000 ± 3000 nM

Structure (SMILES): O=C1NC(=O)C(=Cc2cc(-c3ccccc3)n(-c3ccc([N+](=O)[O-])cc3)c2-c2ccccc2)C(=O)N1 [Compound 4s, 5-((1-(4-nitrophenyl)-2,5-diphenyl-1H-pyrrol-3-yl)methylene)pyrimidine-2,4,6(1H,3H,5H)-trione]
- IC50 ([1]; read-out: MDM2 IC50): 150 ± 60 nM
- IC50 ([2]; read-out: MDMX IC50): 680 ± 180 nM

Structure (SMILES): CCN1C(=O)C(=Cc2cc(-c3ccccc3)n(-c3ccc(Cl)cc3)c2-c2ccccc2)C(=O)N(CC)C1=S [Compound 4u]
- fold less potent against MDM2 compared with unsubstituted analogues [1]: 3–4 fold
- IC50 ([1]; read-out: MDM2 IC50): 300 ± 120 nM

Structure (SMILES): CCN1C(=O)C(=Cc2cc(-c3ccccc3)n(-c3ccc(Br)cc3)c2-c2ccccc2)C(=O)N(CC)C1=O [Compound 4v]
- fold less potent against MDM2 compared with unsubstituted analogues [1]: 3–4 fold
- IC50 ([1]; read-out: MDM2 IC50): 890 ± 40 nM
- inhibition at 50 µM ([2]; read-out: MDMX % inhibition at 50 μM): 74%

Structure (SMILES): CCN1C(=O)C(=Cc2cc(-c3ccccc3)n(-c3ccc(Br)cc3)c2-c2ccccc2)C(=O)N(CC)C1=S [Compound 4w]
- IC50 ([1]; read-out: MDM2 IC50): 260 ± 50 nM

Structure (SMILES): CN1C(=O)NC(=O)C(=Cc2cc(-c3ccccc3)n(-c3ccc(Br)cc3)c2-c2ccccc2)C1=O [Compound 4y]
- IC50 [1]: 340 ± 80 nM
- IC50 [2]: 35000 ± 20000 nM

Structure (SMILES): CN1C(=O)C(=Cc2cc(-c3ccccc3)n(-c3ccc(Br)cc3)c2-c2ccccc2)C(=O)NC1=S [Compound 4z]
- IC50 [1]: 73 ± 2 nM

Structure (SMILES): CC1(C)OC(=O)C(=Cc2cc(-c3ccccc3)n(-c3ccc(Br)cc3)c2-c2ccccc2)C(=O)O1 [Compound 7]
- fold less potent than 8c against MDM2–p53 [1]: > 100 fold
- IC50 [1, 3]: 17000 ± 4000 nM

Structure (SMILES): CC1(C)OC(=O)C(Cc2cc(-c3ccccc3)n(-c3ccc(Br)cc3)c2-c2ccccc2)C(=O)O1 [Compound 9]
- fold less potent than 8c against MDM2–p53 [1]: 20 fold
- IC50 [1, 3]: 2900 ± 700 nM

Structure (SMILES): COC(=O)C(=Cc1cc(-c2ccccc2)n(-c2ccc(Cl)cc2)c1-c1ccccc1)C(=O)OC [Compound 10a]
- activity against MDM2–p53 in words [1]: essentially inactive
- IC50 [1, 3]: > 50000 nM
- IC50 [2, 4]: > 50000 nM

Structure (SMILES): O=C(O)C(=Cc1cc(-c2ccccc2)n(-c2ccc(Cl)cc2)c1-c1ccccc1)C(=O)O [Compound 10b]
- activity against MDM2–p53 in words [1]: modest activity
- IC50 [1, 3]: 2900 ± 200 nM
- IC50 [2, 4]: > 50000 nM

Structure (SMILES): NC(=O)C(=Cc1cc(-c2ccccc2)n(-c2ccc(Cl)cc2)c1-c1ccccc1)C(N)=O [Compound 10c]
- IC50 [1, 3]: 2500 ± 200 nM
- IC50 [2, 4]: 30000 nM

Reference: article PMC3777193, “Diaryl- and triaryl-pyrrole derivatives: inhibitors of the MDM2–p53 and MDMX–p53 protein–protein interactions” (Medchemcomm, 2013)
